Source: ChEMBL document CHEMBL1201862, “PubChem BioAssay data set” (2004)
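Values below derive from 48-hour exposures of cells grown in 96-well plates, with endpoints linearly interpolated between the two concentrations bracketing the appropriate inhibition level. At the GI50, growth is halved.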 Active and inactive are the calls of the source. No stated cut-off is given here; in the data, active = GI50 up to about 1.1 µM and inactive = higher.

Columns and labels:
Assay in all cases: NCI tumour cell line growth inhibition, 48 h
[1] = test system: 786-0
[2] = test system: A498
[3] = test system: A549
[4] = test system: ACHN
[5] = test system: BT-549
[6] = test system: CAKI-1
[7] = test system: COLO 205
[8] = test system: DU-145
[9] = test system: EKVX
[10] = test system: HCT-116
[11] = test system: HCT-15
[12] = test system: HL-60
[13] = test system: HOP-62
[14] = test system: HT-29
[15] = test system: Hs-578T
[16] = test system: IGROV-1
[17] = test system: K562
[18] = test system: KM12
[19] = test system: LOX IMVI
[20] = test system: M14
[21] = test system: MCF7
[22] = test system: MDA-MB-231
[23] = test system: MDA-MB-435
[24] = test system: MDA-N
[25] = test system: MOLT-4
[26] = test system: Malme-3M
[27] = test system: NCI-H23
[28] = test system: NCI-H460
[29] = test system: NCI-H522
[30] = test system: NCI/ADR-RES
[31] = test system: OVCAR-3
[32] = test system: OVCAR-4
[33] = test system: OVCAR-5
[34] = test system: OVCAR-8
[35] = test system: PC-3
[36] = test system: RXF 393
[37] = test system: SF-268
[38] = test system: SF-295
[39] = test system: SF-539
[40] = test system: SK-MEL-28
[41] = test system: SK-MEL-2
[42] = test system: SK-MEL-5
[43] = test system: SK-OV-3
[44] = test system: SN12C
[45] = test system: SNB-19
[46] = test system: SNB-75
[47] = test system: SR
[48] = test system: SW-620
[49] = test system: T47D
[50] = test system: TK-10
[51] = test system: U-251
[52] = test system: UACC-257
[53] = test system: UACC-62
[54] = test system: UO-31
[55] = test system: CCRF-CEM
[56] = test system: HCC 2998
[57] = test system: NCI-H226
[58] = test system: RPMI-8226

## COc1nc(C#CC(C)(C)C)nc(OC)n1
[1]
  GI50: 23.8 µM (inactive)
[2]
  GI50: 41.9 µM (inactive)
[3]
  GI50: 25.4 µM (inactive)
[4]
  GI50: 39 µM (inactive)
[5]
  GI50: 31.9 µM (inactive)
[6]
  GI50: 22.3 µM (inactive)
[7]
  GI50: 31.8 µM (inactive)
[8]
  GI50: 23.6 µM (inactive)
[9]
  GI50: 36 µM (inactive)
[10]
  GI50: 15.7 µM (inactive)
[11]
  GI50: 20.8 µM
[12]
  GI50: 25.8 µM (inactive)
[13]
  GI50: 34.4 µM (inactive)
[14]
  GI50: 40 µM (inactive)
[15]
  GI50: 30.8 µM (inactive)
[16]
  GI50: 39.4 µM (inactive)
[17]
  GI50: 38 µM (inactive)
[18]
  GI50: 18.2 µM (inactive)
[19]
  GI50: 16.6 µM (inactive)
[20]
  GI50: 36.6 µM (inactive)
[21]
  GI50: 19 µM (inactive)
[22]
  GI50: 20.9 µM (inactive)
[23]
  GI50: 15 µM (inactive)
[24]
  GI50: 12.4 µM (inactive)
[25]
  GI50: 35.6 µM (inactive)
[26]
  GI50: 19 µM (inactive)
[27]
  GI50: 19.7 µM (inactive)
[28]
  GI50: 26.8 µM (inactive)
[29]
  GI50: 23.9 µM (inactive)
[30]
  GI50: 21 µM (inactive)
[31]
  GI50: 28.6 µM (inactive)
[32]
  GI50: 16.4 µM (inactive)
[33]
  GI50: 21.2 µM (inactive)
[34]
  GI50: 17.8 µM (inactive)
[35]
  GI50: 31 µM (inactive)
[36]
  GI50: 31.9 µM (inactive)
[37]
  GI50: 26.2 µM (inactive)
[38]
  GI50: 32.4 µM (inactive)
[39]
  GI50: 28.8 µM (inactive)
[40]
  GI50: 37.2 µM (inactive)
[41]
  GI50: 30.3 µM (inactive)
[42]
  GI50: 16 µM (inactive)
[43]
  GI50: 55 µM (inactive)
[44]
  GI50: 21.9 µM (inactive)
[45]
  GI50: > 100 µM (inactive)
[46]
  GI50: 33.6 µM (inactive)
[47]
  GI50: 5.21 µM (inactive)
[48]
  GI50: 25 µM (inactive)
[49]
  GI50: 55.5 µM (inactive)
[50]
  GI50: 27.4 µM (inactive)
[51]
  GI50: 39.2 µM (inactive)
[52]
  GI50: 48.3 µM (inactive)
[53]
  GI50: 14.8 µM (inactive)
[54]
  GI50: 28.7 µM (inactive)

## O=C1c2ccccc2C(=O)c2c(NCC(O)CO)ccc(NCC(O)CO)c21 (stereo not drawn)
[1]
  GI50: 69.7 µM (inactive)
[2]
  GI50: > 100 µM (inactive)
[3]
  GI50: > 100 µM (inactive)
[4]
  GI50: 40.5 µM (inactive)
[5]
  GI50: 75.7 µM (inactive)
[6]
  GI50: 56.6 µM (inactive)
[55]
  GI50: 41.4 µM (inactive)
[7]
  GI50: 37.2 µM (inactive)
[8]
  GI50: 38.6 µM (inactive)
[9]
  GI50: > 100 µM (inactive)
[56]
  GI50: 72.6 µM (inactive)
[10]
  GI50: 67 µM (inactive)
[11]
  GI50: 43.7 µM
[12]
  GI50: 63 µM (inactive)
[13]
  GI50: 61.1 µM (inactive)
[14]
  GI50: 56.6 µM (inactive)
[15]
  GI50: 68.7 µM (inactive)
[16]
  GI50: 49.4 µM (inactive)
[17]
  GI50: 35.2 µM (inactive)
[19]
  GI50: 28.3 µM (inactive)
[21]
  GI50: 21.3 µM (inactive)
[22]
  GI50: 97.9 µM (inactive)
[23]
  GI50: > 100 µM (inactive)
[24]
  GI50: 61.2 µM (inactive)
[25]
  GI50: 32.2 µM (inactive)
[26]
  GI50: 91.2 µM (inactive)
[57]
  GI50: 51.4 µM (inactive)
[27]
  GI50: 96.2 µM (inactive)
[28]
  GI50: 61 µM (inactive)
[29]
  GI50: 67.3 µM (inactive)
[30]
  GI50: > 100 µM (inactive)
[31]
  GI50: 79.6 µM (inactive)
[32]
  GI50: > 100 µM (inactive)
[33]
  GI50: > 100 µM (inactive)
[34]
  GI50: 69.2 µM (inactive)
[35]
  GI50: 78 µM (inactive)
[58]
  GI50: 65 µM (inactive)
[37]
  GI50: 89.1 µM (inactive)
[39]
  GI50: 62.1 µM (inactive)
[40]
  GI50: > 100 µM (inactive)
[41]
  GI50: 24.4 µM (inactive)
[42]
  GI50: 33.7 µM (inactive)
[43]
  GI50: 40.9 µM (inactive)
[44]
  GI50: 71.3 µM (inactive)
[45]
  GI50: 43.2 µM (inactive)
[46]
  GI50: 56.4 µM (inactive)
[47]
  GI50: 61.4 µM (inactive)
[48]
  GI50: 45.9 µM (inactive)
[49]
  GI50: > 100 µM (inactive)
[50]
  GI50: 72.4 µM (inactive)
[51]
  GI50: 61.2 µM (inactive)
[52]
  GI50: > 100 µM (inactive)
[53]
  GI50: 51.5 µM (inactive)
[54]
  GI50: 17.8 µM (inactive)

## Cc1cc(N(CCC#N)CCC#N)ccc1C(/N=N/c1ccc([N+](=O)[O-])cc1)=N\NC(=O)c1ccccc1
[1]
  GI50: 47.9 µM (inactive)
[2]
  GI50: 25.9 µM (inactive)
[3]
  GI50: 57.1 µM (inactive)
[4]
  GI50: 62.8 µM (inactive)
[5]
  GI50: 37.5 µM (inactive)
[6]
  GI50: 72.1 µM (inactive)
[55]
  GI50: 41.4 µM (inactive)
[7]
  GI50: 35.2 µM (inactive)
[8]
  GI50: 48 µM (inactive)
[9]
  GI50: 63.4 µM (inactive)
[56]
  GI50: 40.5 µM (inactive)
[10]
  GI50: 31.8 µM (inactive)
[11]
  GI50: 30.1 µM
[12]
  GI50: 32.1 µM (inactive)
[13]
  GI50: 87.5 µM (inactive)
[14]
  GI50: 24.5 µM (inactive)
[15]
  GI50: 25.1 µM (inactive)
[16]
  GI50: 47 µM (inactive)
[17]
  GI50: 22.9 µM (inactive)
[18]
  GI50: 40.8 µM (inactive)
[20]
  GI50: 86.9 µM (inactive)
[21]
  GI50: 25.8 µM (inactive)
[22]
  GI50: 58.7 µM (inactive)
[23]
  GI50: 7.82 µM (inactive)
[24]
  GI50: 6.25 µM (inactive)
[25]
  GI50: 45.2 µM (inactive)
[26]
  GI50: 56.9 µM (inactive)
[57]
  GI50: 39.1 µM (inactive)
[27]
  GI50: 30.7 µM (inactive)
[28]
  GI50: 37.2 µM (inactive)
[29]
  GI50: 17 µM (inactive)
[30]
  GI50: 51.5 µM (inactive)
[31]
  GI50: 46.1 µM (inactive)
[32]
  GI50: 61 µM (inactive)
[33]
  GI50: > 100 µM (inactive)
[34]
  GI50: 56.5 µM (inactive)
[35]
  GI50: 41.2 µM (inactive)
[58]
  GI50: 75.9 µM (inactive)
[36]
  GI50: 52.2 µM (inactive)
[37]
  GI50: 32.3 µM (inactive)
[38]
  GI50: 19.5 µM (inactive)
[39]
  GI50: 15 µM (inactive)
[41]
  GI50: 67 µM (inactive)
[42]
  GI50: 26.4 µM (inactive)
[43]
  GI50: 49.5 µM (inactive)
[44]
  GI50: 43.3 µM (inactive)
[45]
  GI50: 40.6 µM (inactive)
[46]
  GI50: 48.4 µM (inactive)
[47]
  GI50: 14.2 µM (inactive)
[49]
  GI50: 27 µM (inactive)
[50]
  GI50: 61.9 µM (inactive)
[51]
  GI50: 42.3 µM (inactive)
[52]
  GI50: 61.8 µM (inactive)
[53]
  GI50: 31 µM (inactive)
[54]
  GI50: 34.4 µM (inactive)
